Data set [1] deals with Rattus norvegicus. As to the kind of experiment: Antiinflammatory activity in Wistar rat assessed as reduction of carrageenan-induced increase in paw volume at 1000 mg/kg, po. It counts as functional, organism-based. More on the design: dose 1000 mg/kg.
Data set [2] concerns Rattus norvegicus. Put plainly: Antiinflammatory activity in Wistar rat assessed as reduction of carrageenan-induced increase in paw volume at 30 mg/kg, po after 2 hrs. It counts as functional. For orientation: In the carrageenan paw model, swelling and tenderness develop within hours.
In data set [3] the test system is Rattus norvegicus. As to the kind of experiment: Toxicity in Wistar rat up to 1000 mg/kg, po. Format: organism-based. More on the design: dose 1000 mg/kg, route oral. The settings on record: in vivo.
Data set [4] relates to Mus musculus. As to the kind of experiment: Toxicity in Swiss albino mouse up to 1000 mg/kg, po. It counts as organism-based. The settings on record: in vivo. More on the design: dose 1000 mg/kg, route oral.
Data set [5] deals with Rattus norvegicus. Put plainly: Antiinflammatory activity in Wistar rat assessed as reduction of carrageenan-induced increase in paw volume at 30 mg/kg, po after 4 hrs. It counts as functional.
For data set [6], the system named is Rattus norvegicus. Put plainly: Antiinflammatory activity in Wistar rat assessed as reduction of carrageenan-induced increase in paw volume at 30 mg/kg, po after 3 hrs. It counts as functional.
Data set [7] concerns Rattus norvegicus. Put plainly: Antiinflammatory activity in Wistar rat assessed as reduction of carrageenan-induced increase in paw volume at 30 mg/kg, po after 24 hrs. Format: functional.
The subject of data set [8] is Mus musculus. Put plainly: Analgesic activity against acetic acid-induced writhing in Swiss albino mouse at 30 mg/kg, po. Details: dose 30 mg/kg. Format: functional, organism-based.

Calls of active or inactive are those of the source. No cut-off for these calls is given here.

In the case of `Cc1cc(O)c(C2=NNC(c3ccc(N4CCOCC4)cc3)C2)cc1Cl` (stereo unspecified), the result with Rattus norvegicus [1] was Active. The Activity in the data set with Rattus norvegicus [2] is 1.56 mL; in the data set on Rattus norvegicus [3], “Non-toxic”; in the data set with Mus musculus [4], “Non-toxic”; in the data set on Rattus norvegicus [5], 1.63 mL; in the data set with Rattus norvegicus [6], 1.62 mL; in the data set on Rattus norvegicus [7] it was 1.93 mL.
With `Oc1ccccc1C1=NNC(c2ccc(N3CCOCC3)cc2)C1` (stereo unspecified), the outcome with Rattus norvegicus [1] was Active. The Activity in the data set on Rattus norvegicus [2] is 0.73 mL; in the data set on Rattus norvegicus [3], “Non-toxic”; in the data set on Mus musculus [4] it was “Non-toxic”; in the data set on Rattus norvegicus [5], 0.69 mL; in the data set on Rattus norvegicus [6] it was 0.59 mL; in the data set with Rattus norvegicus [7], 0.68 mL.
As for `O=C([O-])Cc1ccccc1Nc1c(Cl)cccc1Cl.[Na+]` [DICLOFENAC SODIUM], the Activity is 0.18 mL with Rattus norvegicus [2], 0.18 mL in the data set with Rattus norvegicus [5], 0.18 mL in the data set on Rattus norvegicus [6] and 0.03 mL in the data set on Rattus norvegicus [7].
For `Cc1ccc(O)c(C2=NNC(c3ccc(N4CCOCC4)cc3)C2)c1` (stereo unspecified), the outcome with Rattus norvegicus [1] and in the data set on Mus musculus [8] was Active. The Activity with Rattus norvegicus [2] is 0.87 mL; with Rattus norvegicus [3], “Non-toxic”; with Mus musculus [4], “Non-toxic”; in the data set on Rattus norvegicus [5] it was 0.96 mL; in the data set with Rattus norvegicus [6], 0.85 mL; with Rattus norvegicus [7], 0.79 mL.
With `Oc1c(Cl)cc(Cl)cc1C1=NNC(c2ccc(N3CCOCC3)cc2)C1` (stereo unspecified), the result in the data set on Rattus norvegicus [1] was Active. The Activity is 1.41 mL in the data set on Rattus norvegicus [2]; “Non-toxic” with Rattus norvegicus [3]; “Non-toxic” in the data set with Mus musculus [4]; 1.75 mL in the data set with Rattus norvegicus [5]; 1.46 mL in the data set on Rattus norvegicus [6]; 1.72 mL in the data set with Rattus norvegicus [7].
As to `Oc1ccc(Br)cc1C1=NNC(c2ccc(N3CCOCC3)cc2)C1` (stereo unspecified), the result in the data set on Rattus norvegicus [1] and in the data set with Mus musculus [8] was Active. Moreover, the Activity is 0.86 mL in the data set on Rattus norvegicus [2]; “Non-toxic” with Rattus norvegicus [3]; “Non-toxic” in the data set on Mus musculus [4]; 0.64 mL with Rattus norvegicus [5]; 0.52 mL in the data set on Rattus norvegicus [6]; 0.98 mL with Rattus norvegicus [7].
As for `Cc1cc(C)c(O)c(C2=NNC(c3ccc(N4CCOCC4)cc3)C2)c1` (stereo unspecified), the outcome with Rattus norvegicus [1] was Active. The Activity in the data set on Rattus norvegicus [2] is 1.38 mL; in the data set with Rattus norvegicus [3] it was “Non-toxic”; in the data set on Mus musculus [4], “Non-toxic”; in the data set with Rattus norvegicus [5], 1.53 mL; with Rattus norvegicus [6], 1.57 mL; in the data set on Rattus norvegicus [7] it was 1.92 mL.
In the case of `Cc1ccc(O)c(C2=NN(C(=S)Nc3ccccc3)C(c3ccc(N4CCOCC4)cc3)C2)c1` (stereo unspecified), the result in the data set on Rattus norvegicus [1] was Active. Moreover, the Activity in the data set on Rattus norvegicus [2] is 1.52 mL; in the data set on Rattus norvegicus [3], “Non-toxic”; with Mus musculus [4] it was “Non-toxic”; in the data set with Rattus norvegicus [5], 1.43 mL; in the data set with Rattus norvegicus [6] it was 1.6 mL; in the data set with Rattus norvegicus [7], 1.92 mL.
Consider `Oc1ccc(Cl)cc1C1=NN(C(=S)Nc2ccccc2)C(c2ccc(N3CCOCC3)cc2)C1` (stereo unspecified), for which the outcome with Rattus norvegicus [1] and in the data set on Mus musculus [8] was Active. In addition, the Activity in the data set on Rattus norvegicus [2] was 0.64 mL; in the data set with Rattus norvegicus [3], “Non-toxic”; with Mus musculus [4] it was “Non-toxic”; with Rattus norvegicus [5] it was 0.72 mL; in the data set on Rattus norvegicus [6], 0.72 mL; in the data set on Rattus norvegicus [7] it was 0.86 mL.
In the case of `Oc1c(Cl)cc(Cl)cc1C1=NN(C(=S)Nc2ccccc2)C(c2ccc(N3CCOCC3)cc2)C1` (stereo unspecified), the outcome in the data set with Rattus norvegicus [1] was Active. Also, the Activity in the data set on Rattus norvegicus [2] is 1.49 mL; with Rattus norvegicus [3] it was “Non-toxic”; with Mus musculus [4] it was “Non-toxic”; with Rattus norvegicus [5] it was 1.52 mL; in the data set on Rattus norvegicus [6], 1.47 mL; in the data set on Rattus norvegicus [7], 1.92 mL.
Turning to `Oc1ccc(Br)cc1C1=NN(C(=S)Nc2ccccc2)C(c2ccc(N3CCOCC3)cc2)C1` (stereo unspecified), the result in the data set with Rattus norvegicus [1] and with Mus musculus [8] was Active. The Activity in the data set on Rattus norvegicus [2] was 0.87 mL; in the data set with Rattus norvegicus [3], “Non-toxic”; in the data set on Mus musculus [4], “Non-toxic”; with Rattus norvegicus [5], 0.91 mL; with Rattus norvegicus [6], 0.69 mL; in the data set on Rattus norvegicus [7], 0.92 mL.
As for `Cc1cc(O)c(C2=NN(C(=S)Nc3ccccc3)C(c3ccc(N4CCOCC4)cc3)C2)cc1Cl` (stereo unspecified), the outcome in the data set with Rattus norvegicus [1] was Active. For the same molecule, the Activity was 1.42 mL in the data set on Rattus norvegicus [2]; “Non-toxic” in the data set on Rattus norvegicus [3]; “Non-toxic” in the data set with Mus musculus [4]; 1.57 mL with Rattus norvegicus [5]; 1.53 mL in the data set with Rattus norvegicus [6]; 1.92 mL in the data set on Rattus norvegicus [7].
As to `Oc1ccccc1C1=NN(C(=S)Nc2ccccc2)C(c2ccc(N3CCOCC3)cc2)C1` (stereo unspecified), the result in the data set on Rattus norvegicus [1] was Active. Besides, the Activity in the data set with Rattus norvegicus [2] is 0.82 mL; in the data set with Rattus norvegicus [3], “Non-toxic”; in the data set with Mus musculus [4], “Non-toxic”; in the data set on Rattus norvegicus [5] it was 0.84 mL; in the data set with Rattus norvegicus [6], 0.62 mL; in the data set with Rattus norvegicus [7], 0.94 mL.
For `Cc1cc(C)c(O)c(C2=NN(C(=S)Nc3ccccc3)C(c3ccc(N4CCOCC4)cc3)C2)c1` (stereo unspecified), the result in the data set with Rattus norvegicus [1] was Active. The Activity with Rattus norvegicus [2] is 1.41 mL; with Rattus norvegicus [3], “Non-toxic”; in the data set with Mus musculus [4], “Non-toxic”; in the data set on Rattus norvegicus [5], 1.63 mL; in the data set on Rattus norvegicus [6], 1.81 mL; with Rattus norvegicus [7], 1.73 mL.
Take `Oc1ccc(Cl)cc1C1=NNC(c2ccc(N3CCOCC3)cc2)C1` (stereo unspecified): the result in the data set with Rattus norvegicus [1] was Active. In addition, the Activity was 1.52 mL in the data set with Rattus norvegicus [2]; “Non-toxic” in the data set on Rattus norvegicus [3]; “Non-toxic” with Mus musculus [4]; 1.61 mL in the data set on Rattus norvegicus [5]; 1.6 mL with Rattus norvegicus [6]; 1.92 mL in the data set on Rattus norvegicus [7].

(Values after ChEMBL document CHEMBL1158640, “Synthesis, analgesic and anti-inflammatory activities of some novel pyrazolines derivatives” (Bioorg Med Chem Lett, 2010).)
